Results taken from PMC8480326, “Chemoenzymatic glycan-selective remodeling of a therapeutic lysosomal enzyme with high-affinity M6P-glycan ligands. Enzyme substrate specificity is the name of the game” (Chemical Science, 2021).
“Also recorded” adds a separate entry of the source.

Experiments:
CI-MPR = molecular target: CI-MPR; set-up: method as in PMID 30843882; conditions: rhGAA with higher M6P content; read-out: apparent KD; cited from earlier work
[1] = system: GAA-deficient multinucleated myotubes (KO); assay: Western blot (anti-human GAA) of treated muscle cell lysates; type: cell-based, mouse; conditions: 5 μM for 24 hours, Western blot with anti-human GAA antibodies
Protocol: (§1) The available anti-human GAA antibodies detected a strong non-specific band in mouse muscle cells as indicated by its presence in both WT and GAA-deficient cell (Fig. 4b, right panel). Previous studies have shown that the mature 76 kDa form of GAA has a higher affinity and activity towards glycogen.[31,50]
Fig. 4 Effect of the therapeutic enzymes in GAA KO (KO) myotubes. […] GAA activity in cell lysates of wild type (WT) myotubes was measured for comparison. The KO cells were treated for 24 hours with 5 μM of each of the recombinant enzyme; n = 5 for each condition. Statistical significance was determined by one-way ANOVA; graph represents mean ± SD. *p <0.05; ****p <0.0001; ns – statistically insignificant. (b) Western blot analysis (with anti-human GAA antibodies) of muscle cell lysates treated with the recombinant enzymes; GAPDH was used as loading control. […]
(§2) Measurement of cell-associated GAA activity. The GAA activity in the cells was measured by using 4-methylumbelliferyl-α-D-glucopyranoside (4-MU- α-glucopyranoside; Sigma-Aldrich #M9766) as the fluorogenic GAA substrate as described.[13] […] Fluorescence was measured on a multi-label plate reader (TECAN, SPARK 10M) at 360 nm excitation/465 nm emission.
(§3) Measurement of the glycogen content. The glycogen content was measured as the amount of glucose released after glycogen digestion with Aspergillus Niger amyloglucosidase (Sigma-Aldrich). […]

[2] = system: GAA-deficient multinucleated myotubes (KO); assay: Cell-associated GAA activity in treated GAA KO myotubes; type: cell-based, mouse; conditions: 5 μM for 24 hours, n = 5, versus untreated cells
Text: To evaluate the effect of the Endo-A (69) and Endo-F3 (70) remodeled rhGAA in the disease-relevant muscle cells, we used GAA-deficient multinucleated myotubes (KO) as an in vitro cell model system for Pompe disease.[48,49] These myotubes are formed from conditionally immortalized myoblasts derived from the GAA knockout mice; unlike myoblasts, the differentiated myotubes replicate the primary defect of the disease, namely, the enlargement of glycogen-laden lysosomes.
as §1, with “glycogen.[31,50] […]” for “glycogen.[31,50]”
BIAcore T200 evaluation software. rhGAA enzyme activity assay. The enzyme activity was assayed by using the substrate 4-methylumbelliferyl-α-D-glucopyranoside (4-MUG) (Sigma-Aldrich) which generates fluorescence on digestion.[9, 10] […] The reaction was monitored at 0 min, 1 min, 2 min, 5 min, 10 min and 15 min by taking 20 μL of aliquot and add ing 50 μL of stop buffer (100 mM glycine/NaOH, pH 11). Fluorescence was measured by a spectrophotometer with 355 nm excitation and 460 nm emission, and the error bar was based on three independent assays. […]

[3] = molecular target: T1, Recombinant human IGF-II R (CI-MPR) (Homo sapiens, UniProt P11717); assay: SPR binding to immobilized CI-MPR; conditions: SPR, immobilized CI-MPR
T1 construct: purchased R&D Systems
T1 sequence (P11717 41-2491): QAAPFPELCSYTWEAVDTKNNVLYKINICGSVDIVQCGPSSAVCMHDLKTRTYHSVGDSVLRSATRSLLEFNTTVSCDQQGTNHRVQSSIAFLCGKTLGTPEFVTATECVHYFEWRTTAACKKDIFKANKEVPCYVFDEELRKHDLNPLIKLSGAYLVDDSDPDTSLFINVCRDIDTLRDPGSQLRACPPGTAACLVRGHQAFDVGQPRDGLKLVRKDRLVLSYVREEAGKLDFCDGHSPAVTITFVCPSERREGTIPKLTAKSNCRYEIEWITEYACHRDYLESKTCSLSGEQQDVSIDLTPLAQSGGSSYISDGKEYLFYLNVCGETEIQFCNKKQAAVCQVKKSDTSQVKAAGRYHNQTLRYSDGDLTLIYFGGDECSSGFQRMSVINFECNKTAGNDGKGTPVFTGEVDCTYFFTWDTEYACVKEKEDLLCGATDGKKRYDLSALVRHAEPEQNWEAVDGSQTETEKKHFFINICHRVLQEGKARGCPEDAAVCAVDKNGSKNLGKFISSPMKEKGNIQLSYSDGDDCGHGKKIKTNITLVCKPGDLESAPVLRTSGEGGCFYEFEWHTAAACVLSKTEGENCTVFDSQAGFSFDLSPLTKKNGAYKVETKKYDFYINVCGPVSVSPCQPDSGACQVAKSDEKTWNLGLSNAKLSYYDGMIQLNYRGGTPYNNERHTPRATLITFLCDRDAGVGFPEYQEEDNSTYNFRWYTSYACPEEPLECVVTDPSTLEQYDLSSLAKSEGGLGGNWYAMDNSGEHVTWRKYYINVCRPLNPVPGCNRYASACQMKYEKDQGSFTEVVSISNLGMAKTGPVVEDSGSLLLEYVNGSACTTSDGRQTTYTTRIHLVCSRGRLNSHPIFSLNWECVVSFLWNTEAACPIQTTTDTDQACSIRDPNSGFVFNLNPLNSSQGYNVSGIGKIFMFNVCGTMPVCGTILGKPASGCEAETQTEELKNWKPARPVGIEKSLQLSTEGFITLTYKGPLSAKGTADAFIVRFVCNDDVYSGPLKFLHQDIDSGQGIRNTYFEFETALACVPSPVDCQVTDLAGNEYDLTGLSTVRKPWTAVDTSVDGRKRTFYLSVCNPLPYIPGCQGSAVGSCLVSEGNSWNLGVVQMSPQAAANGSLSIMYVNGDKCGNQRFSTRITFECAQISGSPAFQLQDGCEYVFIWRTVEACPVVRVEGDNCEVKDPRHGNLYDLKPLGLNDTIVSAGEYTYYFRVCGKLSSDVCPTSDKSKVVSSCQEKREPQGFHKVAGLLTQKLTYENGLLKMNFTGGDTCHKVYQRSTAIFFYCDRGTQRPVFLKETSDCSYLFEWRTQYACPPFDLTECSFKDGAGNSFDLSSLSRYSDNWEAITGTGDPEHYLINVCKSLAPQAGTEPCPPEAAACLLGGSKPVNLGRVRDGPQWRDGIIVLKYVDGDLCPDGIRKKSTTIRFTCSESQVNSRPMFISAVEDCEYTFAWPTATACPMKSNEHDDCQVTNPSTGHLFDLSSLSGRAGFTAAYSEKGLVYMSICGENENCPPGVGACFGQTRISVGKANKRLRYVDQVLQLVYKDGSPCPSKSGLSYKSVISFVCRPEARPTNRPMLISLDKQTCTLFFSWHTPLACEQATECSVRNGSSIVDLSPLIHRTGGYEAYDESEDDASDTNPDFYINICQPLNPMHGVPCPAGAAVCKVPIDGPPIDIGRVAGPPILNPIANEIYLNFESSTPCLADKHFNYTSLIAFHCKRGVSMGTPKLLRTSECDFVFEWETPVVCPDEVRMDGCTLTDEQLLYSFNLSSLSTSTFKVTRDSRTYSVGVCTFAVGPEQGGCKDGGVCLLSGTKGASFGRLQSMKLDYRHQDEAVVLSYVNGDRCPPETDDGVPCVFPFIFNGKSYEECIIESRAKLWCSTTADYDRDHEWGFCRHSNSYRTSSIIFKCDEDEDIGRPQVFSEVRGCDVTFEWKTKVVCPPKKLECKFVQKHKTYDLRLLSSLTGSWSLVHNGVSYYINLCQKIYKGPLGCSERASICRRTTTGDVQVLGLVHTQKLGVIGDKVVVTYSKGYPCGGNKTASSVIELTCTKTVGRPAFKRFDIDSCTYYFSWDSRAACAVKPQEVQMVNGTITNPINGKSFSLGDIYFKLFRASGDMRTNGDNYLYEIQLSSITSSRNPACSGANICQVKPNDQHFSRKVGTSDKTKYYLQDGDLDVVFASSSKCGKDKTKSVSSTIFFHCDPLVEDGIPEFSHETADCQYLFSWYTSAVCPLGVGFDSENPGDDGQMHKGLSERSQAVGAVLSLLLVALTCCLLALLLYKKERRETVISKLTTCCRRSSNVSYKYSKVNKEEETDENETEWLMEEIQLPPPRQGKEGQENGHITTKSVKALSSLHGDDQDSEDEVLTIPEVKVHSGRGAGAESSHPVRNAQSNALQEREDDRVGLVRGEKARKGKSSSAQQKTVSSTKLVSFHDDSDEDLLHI
Protocol: Surface Plasmon Resonance (SPR) Measurements. SPR measurements were performed on a Biacore T200 instrument (GE Healthcare). Recombinant human IGF-II R (CI-MPR) was purchased
from R&D Systems. Approximately 7000 resonance units (RU) of CI-MPR was immobilized on a
CM5 sensor chip in a sodium acetate buffer (25 μg/mL, pH 4.0) at 25 °C, using the amine coupling kit
provided by the manufacturer. Mannose 6-phosphate containing glycopeptides or glycoproteins were
determined at 25 °C under a flow rate of 10 μL/min. HBS-P+ buffer (10 mM HEPES, 150 mM NaCl,
0.05% surfactant P20, pH 7.4) was used as sample buffer and running buffer. Association was
measured for 3 min and dissociation for 10 min at same flow rate (10 μL/min). The surface
and glycoprotein analytes flowed over an immobilized chip with 2-fold serial dilution of the highest
concentration of 4 μM (for glycopeptides) or 1 μM (for RNase B) or 250 nM (for rhGAA).
analyses were performed by global fitting of the binding data to a 1:1 Langmuir binding model using

[4] = system: GAA-deficient multinucleated myotubes (KO); assay: Western blot of lysosomal (LAMP1) and endosomal (Rab5) markers; type: cell-based, mouse; conditions: 5 μM for 24 hours
[5] = system: GAA-deficient multinucleated myotubes (KO); assay: Lamp1 immunostaining of myotubes (lysosomal swelling); type: cell-based, mouse; conditions: 5 μM for 24 hours, confocal images
Text: The effect of the Endo-A and Endo-F3 remodeled rhGAA was confirmed by immunostaining of myotubes with Lamp1. […] The therapeutic potential of the M6P glycan-remodeled rhGAA in lysosomal glycogen reduction and reversal of muscle pathology will be further evaluated in Pompe disease animal models in future studies.
Fig. 5 Effect of the therapeutic enzymes on lysosomal swelling and glycogen content in GAA KO (KO) myotubes. […] Nuclei are stained with DAPI (blue). Bar: 10 μm. (b) Graph illustrates glycogen levels measured in cell lysates from WT, untreated- and treated KO myotubes. […] Statistical significance was determined by one-way ANOVA; graph represents mean ± SD. **p <0.01; ****p <0.0001; ns – statistically insignificant.
as §2, §3

Substance: ATB200: a novel rhGAA carrying a higher M6P content
- Kd (CI-MPR): 2 to 4 nM

Substance: Lumizyme: recombinant human acid α-glucosidase (rhGAA; Lumizyme, Sanofi Genzyme) used for treatment of Pompe disease
- processed, mature lysosomal form of rhGAA (76 kDa) in cells [1]: barely detectable
- GAA activity in cell lysates [2]: only a slight increase (statistically insignificant)
- Kd ([3]; 25 °C, average of three independent experiments): 14 ± 3.7 nM
- levels of endosomal (Rab5) and lysosomal (LAMP1) markers [4]: remained the same as in the untreated GAA-deficient cells
- enlarged LAMP1-positive lysosomes [5]: Enlarged lysosomes were seen; also recorded: can be detected

Substance: deglycosylated rhGAA: rhGAA treated with wild-type Endo-A to remove the high-mannose N-glycans including the M6P glycans
- affinity for CI-MPR (in words) [3]: lost its binding affinity
